Values after ≈ are worked out from the molar mass of the structure shown.
How the values were obtained:
[1] = test system: M. tuberculosis H37Rv; test: resazurin reduction assay (MIC99), M. tuberculosis H37Rv; type: cell-based; conditions: Mycobacterium tuberculosis, BTZ-susceptible wild type strain
Description: Activity against M. tuberculosis strains H37Rv and NBT1 was determined by the resazurin reduction assay (MIC99). The method is described in detail in: J. C. Palomino, A. Martin, M. Camacho, H. Guerra, J. Swings, F. Portaels, Antimicrob. Agents Chemother., 2002, 46, 2720-2722.

SMILES	melting point	MIC99 [1]
Cl.O=c1nc(N2CCN(CCCCOc3ccccc3)CC2)sc2c([N+](=O)[O-])cc(C(F)(F)F)cc12	256 to 258 °C	–
CCCCCCCN1CCN(c2nc(=O)c3cc(C(F)(F)F)cc([N+](=O)[O-])c3s2)CC1.Cl (hydrate or solvate)	254 to 256 °C	–
CCCCN1CCN(c2nc(=O)c3cc(C(F)(F)F)cc([N+](=O)[O-])c3s2)CC1.Cl (hydrate or solvate)	239 to 241 °C	–
Cl.O=c1nc(N2CCN(CCC3CCCCC3)CC2)sc2c([N+](=O)[O-])cc(C(F)(F)F)cc12 (hydrate or solvate)	271 to 273 °C	–
Cl.O=c1nc(N2CCCN(C3CCCCC3)CC2)sc2c([N+](=O)[O-])cc(C(F)(F)F)cc12 (hydrate or solvate) [Compound 6, 2-(4-Cyclohexyl-1,4-diazepan-1-yl)-8-nitro-6-(trifluoromethyl)-4H-1,3-benzothiazin-4-one Hydrochloride]	290 to 293 °C	–
Cl.O=c1nc(N2CCCN(CCc3ccccc3)CC2)sc2c([N+](=O)[O-])cc(C(F)(F)F)cc12 (hydrate or solvate) [Compound 7, 8-Nitro-2-[4-(2-phenylethyl)-1,4-diazepan-1-yl]-6-(trifluoromethyl)-4H-1,3-benzothiazin-4-one Hydrochloride]	264 to 267 °C	–
Cl.O=c1nc(N2CCCN(CC3CCCCC3)CC2)sc2c([N+](=O)[O-])cc(C(F)(F)F)cc12 [Compound 1, 2-[4-(Cyclohexylmethyl)-1,4-diazepan-1-yl]-8-nitro-6-(trifluoromethyl)-4H-1,3-benzothiazin-4-one Hydrochloride]	269 to 271 °C	1 ng/mL
CCCCCN1CCCN(c2nc(=O)c3cc(C(F)(F)F)cc([N+](=O)[O-])c3s2)CC1.Cl [Compound 2, 8-Nitro-2-(4-pentyl-1,4-diazepan-1-yl)-6-(trifluoromethyl)-4H-1,3-benzothiazin-4-one Hydrochloride]	246 to 248 °C	0.2 ng/mL
CCCCCCN1CCCN(c2nc(=O)c3cc(C(F)(F)F)cc([N+](=O)[O-])c3s2)CC1.Cl [Compound 3, 2-(4-Hexyl-1,4-diazepan-1-yl)-8-nitro-6-(trifluoromethyl)-4H-1,3-benzothiazin-4-one Hydrochloride]	249 to 251 °C	0.2 ng/mL
Cl.O=c1nc(N2CCCN(CCC3CCCCC3)CC2)sc2c([N+](=O)[O-])cc(C(F)(F)F)cc12 [Compound 4, 2-[4-(2-Cyclohexylethyl)-1,4-diazepan-1-yl]-8-nitro-6-(trifluoromethyl)-4H-1,3-benzothiazin-4-one Hydrochloride]	274 to 277 °C	0.2 ng/mL
CCCCCCCN1CCCN(c2nc(=O)c3cc(C(F)(F)F)cc([N+](=O)[O-])c3s2)CC1.Cl [Compound 5, 2-(4-Heptyl-1,4-diazepan-1-yl)-8-nitro-6-(trifluoromethyl)-4H-1,3-benzothiazin-4-one Hydrochloride]	256 to 258 °C	0.3 ng/mL
Cl.O=c1nc(N2CCCN(C3CCCCC3)CC2)sc2c([N+](=O)[O-])cc(C(F)(F)F)cc12 [Compound 6, 2-(4-Cyclohexyl-1,4-diazepan-1-yl)-8-nitro-6-(trifluoromethyl)-4H-1,3-benzothiazin-4-one Hydrochloride]	–	1 ng/mL
Cl.O=c1nc(N2CCCN(CCc3ccccc3)CC2)sc2c([N+](=O)[O-])cc(C(F)(F)F)cc12 [Compound 7, 8-Nitro-2-[4-(2-phenylethyl)-1,4-diazepan-1-yl]-6-(trifluoromethyl)-4H-1,3-benzothiazin-4-one Hydrochloride]	–	0.8 ng/mL
O=c1nc(N2CCN(CC3CCCCC3)CC2)sc2c([N+](=O)[O-])cc(C(F)(F)F)cc12 [PBTZ169, 2-[4-(cyclohexylmethyl)piperazin-1-yl]-8-nitro-6-(trifluoromethyl)-4H-1,3-benzothiazin-4-one, reference compound]	–	0.3 ng/mL (≈ 0.657 nM)

Reference: US10358442B2, “2-homopiperazine-1-yl-4H-1,3-benzothiazine-4-one derivatives and process for the preparation of 2-(homo)piperazine 1,3-benzothiazine-4-one hydrochlorides” (Ecole Polytechnique Federale De Lausanne (EPFL), priority 2015, dated 2019)
